Assay [1] deals with T1, hFP (Homo sapiens, UniProt P43088).
T1 construct: expressed in transfected cells
Put plainly: FLIPR calcium signal, FP. In kind it is cell-based. The settings on record: HEK-293(EBNA). The procedure, abridged:
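Stably transfected HEK-293(EBNA) cells loaded with 2 μM Fluo-4 AM in HBSS-HEPES pH 7.4, 37° C; peak fluorescence rise after compound addition (FLIPR, 488 nm excitation) expressed relative to buffer and standard agonist controls (PGE2 for EP subtypes, U-46619 for TP). Tested 10^−5 to 10^−11 M, duplicates, n≧3.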

The target of assay [2] is T2, EP2 (Homo sapiens, UniProt P43116). Put plainly: cAMP assay, HEK-EBNA cells expressing EP2. In kind it is cell-based. On the set-up: expressed in transfected cells; host or cells: HEK-EBNA. The settings on record: value in parentheses in EP2 column, read-out: EP2 EC50 (nM), measurement of cAMP (data in parentheses). In short, it runs like this: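 HEK-EBNA cells expressing EP2 (10^4 cells per well) were stimulated for 30 min at room temperature with compound in HBSS containing 0.1% BSA, 0.5 mM IBMX and 5 mM HEPES, pH 7.4. Compounds ran in 16-point serial dilutions in triplicate. cAMP was detected by AlphaScreen competition between anti-cAMP acceptor beads and biotin-cAMP/streptavidin donor beads.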

Assay [3] addresses T2, EP2. As to the kind of experiment: Competition binding, [3H]PGE2, EP2 (Ki). On the set-up: expressed in transfected cells; membranes or whole cells. The note with it: HEK 293 cells stably expressing human EP2, [3H]PGE2. The procedure, abridged:
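Membranes (~60 μg protein) or 2×10^5 HEK 293 cells stably expressing human EP2, in HBSS/20 mM Hepes pH 7.3 with [3H]PGE2 (10 nM), 60 min at 23° C, then filtration. Non-specific binding with 10 μM unlabeled PGE2; single-site fit IC50 converted to Ki using KD 40 nM.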

T2 sequence (P43116 whole entry): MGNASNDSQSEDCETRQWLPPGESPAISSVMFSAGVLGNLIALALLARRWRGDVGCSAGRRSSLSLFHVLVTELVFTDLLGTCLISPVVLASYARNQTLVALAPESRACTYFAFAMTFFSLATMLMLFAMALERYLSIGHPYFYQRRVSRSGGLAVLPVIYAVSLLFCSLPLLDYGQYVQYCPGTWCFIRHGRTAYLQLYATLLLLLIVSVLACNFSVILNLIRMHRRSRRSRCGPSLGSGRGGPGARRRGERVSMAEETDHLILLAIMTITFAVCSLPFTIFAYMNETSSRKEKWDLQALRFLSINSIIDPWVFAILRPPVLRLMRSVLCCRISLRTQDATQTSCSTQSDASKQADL
T1 sequence (P43088 whole entry): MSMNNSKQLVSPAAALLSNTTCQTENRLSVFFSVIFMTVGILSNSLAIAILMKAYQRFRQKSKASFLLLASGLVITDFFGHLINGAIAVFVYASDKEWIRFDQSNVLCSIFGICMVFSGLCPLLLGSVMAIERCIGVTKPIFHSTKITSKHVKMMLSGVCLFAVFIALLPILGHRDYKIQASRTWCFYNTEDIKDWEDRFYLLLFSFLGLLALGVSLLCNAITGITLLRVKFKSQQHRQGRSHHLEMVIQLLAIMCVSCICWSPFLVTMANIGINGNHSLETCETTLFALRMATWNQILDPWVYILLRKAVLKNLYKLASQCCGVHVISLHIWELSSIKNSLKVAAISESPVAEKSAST

Take `CCCCCC(O)C(C)(C)c1ccc([C@@H]2[C@@H](C/C=C\CCCC(=O)O)[C@H](Cl)C[C@H]2O)cc1` (stereo partly drawn) [Entry 31, (Z)-7-{(1R,2S,3R,5R)-5-Chloro-3-hydroxy-2-[4-(2-hydroxy-1,1-dimethyl-heptyl)-phenyl]-cyclopentyl}-hept-5-enoic acid]: the “Ca2+ Signal-EC50 (nM) FP” value in assay [1] is “not active”. The EC50 in assay [2] came out at 19 nM. The same compound gave a Ki in assay [3] of 182 nM.

Consider `CCCCCCc1ccc([C@@H]2[C@@H](C/C=C\CCCC(=O)O)[C@H](Cl)C[C@H]2O)cc1` [Entry 33, (Z)-7-[(1R,2S,3R,5R)-5-Chloro-2-(4-hexyl-phenyl)-3-hydroxy-cyclopentyl]-hept-5-enoic acid], for which, in assay [1], the “Ca2+ Signal-EC50 (nM) FP” value is recorded as “not active”. Further, the EC50 in assay [2] is 27 nM. This compound came in with a Ki in assay [3] of 83 nM.

For the compound `CCCCCC(O)c1ccc([C@@H]2[C@@H](C/C=C\CCCC(=O)O)[C@H](Cl)C[C@@H]2O)cc1` (stereo partly drawn) [Entry 34, (Z)-7-{(1R,2S,3S,5R)-5-Chloro-3-hydroxy-2-[4-(1-hydroxy-hexyl)-phenyl]-cyclopentyl}-hept-5-enoic acid], the “Ca2+ Signal-EC50 (nM) FP” value in assay [1] is reported as “not active”. In addition, in assay [2], the half-maximal effective concentration (EC50) came out at 5 nM. Besides, the Ki in assay [3] stood at 12 nM.
